Reference: patent EP4609864A1, “PHARMACEUTICAL COMPOSITION CONTAINING ISOQUINOLINONE COMPOUND, AND PREPARATION METHOD THEREFOR” (Jiangsu Hengrui Pharmaceuticals Co., Ltd., priority 2022, dated 2024)

Legend:
TNFα = assay: Mouse model of LPS-induced acute pulmonary inflammation: TNFα level in BALF; type: in vivo, BALB/c mouse; settings: 1.0 mg/kg intratracheal nebulized, 1 h before LPS; BALF 6 h after modeling; vs. model group
Procedure: (§1) The study utilized a BALB/c mouse model of LPS-induced acute pulmonary inflammation to evaluate the inhibitory effect of the compound on pulmonary inflammation based on immune cell counts and TNFα cytokine levels in bronchoalveolar lavage fluid (BALF). The mice were divided into 6 groups, with 8 mice per group, including: a normal control group, a model control group, an RPL554 group (1.0 mg/kg), and low, medium, and high dose groups of compound A (0.3 mg/kg, 1.0 mg/kg, and 3.0 mg/kg). One hour after intratracheal administration of nebulized drugs, the mice were stimulated by nebulized LPS for modeling. Six hours after modeling, BALF was collected from the animals, and the total cells, the neutrophils, and the eosinophils in BALF were counted, along with the measurement of the pro-inflammatory cytokine TNFα level in BALF.

[1] = phase II; patients with chronic obstructive pulmonary disease; cited from earlier work
immune cells in BALF = assay: Mouse model of LPS-induced acute pulmonary inflammation: immune cell counts in BALF; type: in vivo, BALB/c mouse; settings: 1.0 mg/kg intratracheal nebulized, 1 h before LPS; BALF 6 h after modeling; vs. model group
Procedure: as §1

Structure (SMILES): COc1cc2c(cc1OC)-c1c/c(=N\c3c(C)cc(C)cc3C)n(CCNC(N)=O)c(=O)n1CC2 [RPL554, 9,10-dimethoxy-2-(2,4,6-trimethylphenylimino)-3-(N-carbamoyl-2-aminoethyl)-3,4,6,7-tetrahydro-2H-pyrimido[6,1-α]isoquinolin-4-one]
- TNFα level in BALF (TNFα): downward trend
- bronchodilation and symptoms [1]: significantly improve bronchodilation and symptoms
- tolerability, adverse events [1]: well tolerated
- number of eosinophils in BALF (immune cells in BALF): significantly lower
- number of neutrophils in BALF (immune cells in BALF): significantly lower
- number of total cells in BALF (immune cells in BALF): significantly lower
